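Five concentrations, 48 hours, 96-well plates. TGI marks complete inhibition of growth.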 Bounds are passed on as bounds.

From PubChem BioAssay (NCI) come the findings set out here.

The test system of the first test is 786-0 renal. In words: NCI anticancer screen, dose series, 48 h.
Regarding `CC(C)CC(N)C(=O)OCN1C(=O)C2C3C=CC(C2C1=O)C1C2C(=O)N(COC(=O)C(N)CC(C)C)C(=O)C2C31` (stereo not drawn), the TGI was greater than 100 µM.

`CC(C)(C)C(=O)C(CC(=O)c1ccccc1)C(=O)C(C)(C)C` yielded a TGI greater than 100 µM.

`COC(=O)c1cc(CC(C)C)c2c(c1)[nH]c1ccccc12` returned a TGI greater than 100 µM.

Compound `Cc1cn(C2C=CC(COP(=O)(OCC3=CC(=O)c4ccccc4C3=O)N(C)CCCCCl)O2)c(=O)[nH]c1=O` (stereo not drawn) returned a TGI of 25.3 µM.

`C[N+](C)(C)CC(=O)N/N=c1\cc(C(=O)Nc2ccc(N=O)cc2C#N)oc2cc(O)ccc12` showed a TGI greater than 100 µM.

Consider `N#CCCN(c1ccc(C=Nc2cccc([N+](=O)[O-])c2)cc1)S(=O)(=O)c1ccccc1`, for which the TGI is greater than 100 µM.

Consider `COc1ccc(/C(=C/n2ccnc2)C(=O)c2ccc(OC)c(OC)c2)cc1`, for which the TGI was greater than 100 µM.

On to `O=C1CC2(C[C@@H]3CCCCCCCCC[C@@H](C3)C2)N1` (stereo partly drawn), for which the TGI was 30.4 µM.

In turn, `O=C1CC2C=CC(O)C(C1)C2` (stereo not drawn) had a TGI greater than 100 µM.

With `Cc1sc2nc3n(c(=O)c2c1C)N=CN(c1ccccc1)C3`, the TGI stood at 46.5 µM.

`CC(C)C(Sc1nc(-c2ccccc2)c(-c2ccccc2)[nH]1)C(=O)NNC(=S)Nc1ccccc1` (stereo not drawn) displayed a TGI of 35.8 µM.

Regarding `COC1O[C@H]2CCN(C(=O)OCc3ccccc3)[C@H]2[C@H]1OCc1ccccc1` (stereo partly drawn), the TGI is greater than 100 µM.

Take `CC(C)(C)OC(=O)NC(C)(C)C(=O)NCCC(=O)O`: the TGI was greater than 100 µM.

Compound `COc1ccc(C2C(Cl)C(=O)N2NC(=O)c2ccc(NC(C)=O)cc2)cc1` (stereo not drawn) registered a TGI greater than 100 µM.

Take `c1ccc([P+](CCNCCNCC[P+](c2ccccc2)(c2ccccc2)c2ccccc2)(c2ccccc2)c2ccccc2)cc1`: the TGI is greater than 100 µM.

Consider `c1ccc(C[P+]2(c3ccccc3)c3ccccc3-c3ccccc32)cc1`, for which the TGI is greater than 100 µM.

With `Cc1c(Cl)cccc1NC(=O)C(=O)C1C(=O)CC(C)(C)CC1=O`, the TGI was greater than 100 µM.

The compound `O=C1O[C@@H](c2ccccc2)C[C@@H]1CN1CCOCC1` registered a TGI greater than 100 µM.

`COc1ccc2nc(-c3ccc(OCc4ccccc4)cc3)ccc2c1` showed a TGI greater than 100 µM.

On to `CCOc1ccc(N/C(=C(/C(Cl)=C(/Cl)NCCN)[N+](=O)[O-])n2nnc3ccccc32)cc1`, for which the TGI was greater than 100 µM.

`N#C/C(=C\NC(=S)Nc1ccc(S(=O)(=O)Nc2ccccn2)cc1)C(N)=O` gave a TGI greater than 100 µM.

In turn, `COC1(C)CC2N(C(=O)c3ccccc3)N=C(c3ccccc3)CC2(C)O1` (stereo not drawn) registered a TGI greater than 100 µM.

In turn, `CC(=O)NC1C(OCc2ccccc2)OC(CO)C(O)C1OCC(=O)N[C@@H](C)C(=O)N[C@H](CCC(=O)NCCNCCNc1c2ccccc2nc2cccc([N+](=O)[O-])c12)C(N)=O` (stereo partly drawn) yielded a TGI of 99.4 µM.

`c1cc2nnc1SCCSCCSc1ccc(nn1)SCCSCCS2` gave a TGI greater than 100 µM.

In turn, `O=C(Cc1nc2ccc(C(=O)c3ccccc3)cc2[nH]c1=O)C(=O)Nc1ccc(Br)cc1` yielded a TGI greater than 100 µM.

`Nc1ccccc1Nc1ccccc1C(=O)[O-].Nc1ccccc1Nc1ccccc1C(=O)[O-].[Cu+2]` came in with a TGI greater than 100 µM.

As for `Cc1ccccc1C1OC1C(=O)c1ccccc1N` (stereo not drawn), the TGI was greater than 100 µM.

In the case of `CCOC(=O)C(OCC1CC=CCC1)Sc1ccccc1` (stereo not drawn), the TGI is greater than 100 µM.

For a further test, the system named is ACHN renal. Put plainly: NCI anticancer screen, dose series, 48 h.
The compound `CC(C)CC(N)C(=O)OCN1C(=O)C2C3C=CC(C2C1=O)C1C2C(=O)N(COC(=O)C(N)CC(C)C)C(=O)C2C31` (stereo not drawn) yielded a TGI greater than 100 µM.

Compound `CC(C)(C)C(=O)C(CC(=O)c1ccccc1)C(=O)C(C)(C)C` returned a TGI greater than 100 µM.

In the case of `COC(=O)c1cc(CC(C)C)c2c(c1)[nH]c1ccccc12`, the TGI was greater than 100 µM.

The compound `Cc1cn(C2C=CC(COP(=O)(OCC3=CC(=O)c4ccccc4C3=O)N(C)CCCCCl)O2)c(=O)[nH]c1=O` (stereo not drawn) came in with a TGI of 26.4 µM.

In the case of `C[N+](C)(C)CC(=O)N/N=c1\cc(C(=O)Nc2ccc(N=O)cc2C#N)oc2cc(O)ccc12`, the TGI was greater than 100 µM.

In turn, `COc1ccc(/C(=C/n2ccnc2)C(=O)c2ccc(OC)c(OC)c2)cc1` yielded a TGI greater than 100 µM.

The compound `O=C1CC2(C[C@@H]3CCCCCCCCC[C@@H](C3)C2)N1` (stereo partly drawn) displayed a TGI of 29.3 µM.

As to `O=C1CC2C=CC(O)C(C1)C2` (stereo not drawn), the TGI is greater than 100 µM.

Regarding `Cc1sc2nc3n(c(=O)c2c1C)N=CN(c1ccccc1)C3`, the TGI was greater than 100 µM.

Consider `CC(C)C(Sc1nc(-c2ccccc2)c(-c2ccccc2)[nH]1)C(=O)NNC(=S)Nc1ccccc1` (stereo not drawn), for which the TGI came out at 87 µM.

Regarding `COC1O[C@H]2CCN(C(=O)OCc3ccccc3)[C@H]2[C@H]1OCc1ccccc1` (stereo partly drawn), the TGI was greater than 100 µM.

For the compound `CC(C)(C)OC(=O)NC(C)(C)C(=O)NCCC(=O)O`, the TGI is greater than 100 µM.

Take `COc1ccc(C2C(Cl)C(=O)N2NC(=O)c2ccc(NC(C)=O)cc2)cc1` (stereo not drawn): the TGI is greater than 100 µM.

Turning to `c1ccc([P+](CCNCCNCC[P+](c2ccccc2)(c2ccccc2)c2ccccc2)(c2ccccc2)c2ccccc2)cc1`, the TGI is greater than 100 µM.

On to `Cc1c(Cl)cccc1NC(=O)C(=O)C1C(=O)CC(C)(C)CC1=O`, for which the TGI is greater than 100 µM.

The compound `O=C1O[C@@H](c2ccccc2)C[C@@H]1CN1CCOCC1` came in with a TGI greater than 100 µM.

In the case of `COc1ccc2nc(-c3ccc(OCc4ccccc4)cc3)ccc2c1`, the TGI was greater than 100 µM.

As for `CCOc1ccc(N/C(=C(/C(Cl)=C(/Cl)NCCN)[N+](=O)[O-])n2nnc3ccccc32)cc1`, the TGI was determined as 43.8 µM.

On to `N#C/C(=C\NC(=S)Nc1ccc(S(=O)(=O)Nc2ccccn2)cc1)C(N)=O`, for which the TGI was greater than 100 µM.

With `COC1(C)CC2N(C(=O)c3ccccc3)N=C(c3ccccc3)CC2(C)O1` (stereo not drawn), the TGI is greater than 100 µM.

`CC(=O)NC1C(OCc2ccccc2)OC(CO)C(O)C1OCC(=O)N[C@@H](C)C(=O)N[C@H](CCC(=O)NCCNCCNc1c2ccccc2nc2cccc([N+](=O)[O-])c12)C(N)=O` (stereo partly drawn) had a TGI of 79.6 µM.

Compound `c1cc2nnc1SCCSCCSc1ccc(nn1)SCCSCCS2` yielded a TGI greater than 100 µM.

`O=C(Cc1nc2ccc(C(=O)c3ccccc3)cc2[nH]c1=O)C(=O)Nc1ccc(Br)cc1` showed a TGI greater than 100 µM.

For the compound `Nc1ccccc1Nc1ccccc1C(=O)[O-].Nc1ccccc1Nc1ccccc1C(=O)[O-].[Cu+2]`, the TGI is greater than 100 µM.

`Cc1ccccc1C1OC1C(=O)c1ccccc1N` (stereo not drawn) yielded a TGI greater than 100 µM.

The compound `CCOC(=O)C(OCC1CC=CCC1)Sc1ccccc1` (stereo not drawn) gave a TGI greater than 100 µM.

A further test deals with BT-549 breast. Put plainly: NCI anticancer screen, dose series, 48 h.
`Cc1sc2nc3n(c(=O)c2c1C)N=CN(c1ccccc1)C3` had a TGI greater than 100 µM.

In turn, `CC(C)(C)OC(=O)NC(C)(C)C(=O)NCCC(=O)O` came in with a TGI greater than 100 µM.

Regarding `c1ccc([P+](CCNCCNCC[P+](c2ccccc2)(c2ccccc2)c2ccccc2)(c2ccccc2)c2ccccc2)cc1`, the TGI is greater than 100 µM.

In turn, `c1ccc(C[P+]2(c3ccccc3)c3ccccc3-c3ccccc32)cc1` showed a TGI greater than 100 µM.

On to `CCOc1ccc(N/C(=C(/C(Cl)=C(/Cl)NCCN)[N+](=O)[O-])n2nnc3ccccc32)cc1`, for which the TGI is greater than 100 µM.

Regarding `O=C(Cc1nc2ccc(C(=O)c3ccccc3)cc2[nH]c1=O)C(=O)Nc1ccc(Br)cc1`, the TGI was greater than 100 µM.

The subject of the next test is DU-145 prostate. In words: NCI anticancer screen, dose series, 48 h.
Consider `CC(C)(C)C(=O)C(CC(=O)c1ccccc1)C(=O)C(C)(C)C`, for which the TGI was greater than 100 µM.

The compound `Cc1cn(C2C=CC(COP(=O)(OCC3=CC(=O)c4ccccc4C3=O)N(C)CCCCCl)O2)c(=O)[nH]c1=O` (stereo not drawn) registered a TGI of 3.06 µM.

The compound `O=C1CC2C=CC(O)C(C1)C2` (stereo not drawn) showed a TGI greater than 100 µM.
